Key:
rCYP1A2 = molecular target: T1, rCYP1A2 (Homo sapiens, UniProt P05177); experiment: Reaction phenotyping with rCYP1A2; type: in vitro ADME
T1 construct: purchased Cypex, Ltd; host or cells: Escherichia coli
T1 sequence (P05177 1-516): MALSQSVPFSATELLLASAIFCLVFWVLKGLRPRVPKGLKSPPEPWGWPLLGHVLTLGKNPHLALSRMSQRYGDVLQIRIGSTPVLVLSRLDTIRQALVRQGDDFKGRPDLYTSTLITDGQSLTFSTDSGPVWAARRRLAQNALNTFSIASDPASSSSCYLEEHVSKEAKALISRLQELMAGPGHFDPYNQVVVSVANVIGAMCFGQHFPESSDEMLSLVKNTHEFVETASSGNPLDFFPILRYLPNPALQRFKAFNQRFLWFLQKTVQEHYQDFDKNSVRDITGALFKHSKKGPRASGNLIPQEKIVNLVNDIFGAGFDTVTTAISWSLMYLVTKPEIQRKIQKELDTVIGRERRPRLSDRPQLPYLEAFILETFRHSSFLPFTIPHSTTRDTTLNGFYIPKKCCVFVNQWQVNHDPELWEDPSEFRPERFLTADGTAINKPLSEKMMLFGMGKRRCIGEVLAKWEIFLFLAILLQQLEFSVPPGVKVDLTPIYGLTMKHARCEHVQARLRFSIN
Method: For FFA and nFFA reaction phenotyping experiments, LC‐MS/MS experiments were performed using an API 4000 QTRAP or QTRAP 5500 mass spectrometer (SCIEX) with positive electrospray ionization. Chromatography was performed using an Atlantis dC18 analytical column (100 × 2.1 mm, 5 µm; Waters Corporation). Mobile phases were 0.2% v/v formic acid in water and 0.2% v/v formic acid in methanol. FFA and nFFA were eluted at a flow rate of 0.5 mL/min with a linear gradient of 40%−95% methanol from 0.20−2.1 min. The mass transitions monitored were 232.0>109.0 for FFA, 204.0>159.0 for nFFA, 348.0>330.0 for 1’‐hydroxymidazolam‐d4 internal standard (FFA reaction phenotyping), and 262.0>244.0 for hydroxybupropion‐d6 internal standard (nFFA reaction phenotyping). Analyst Instrument Control and Data Processing software (v. 1.6.1) was used for collecting and integrating data (SCIEX). Calibration curves ranging from 1.25 µM−0.01 µM were used to quantify nFFA. Relative quantitation was used to approximate the amount of FFA test material used.
Methods used to evaluate the role of CYP450s in the metabolism of FFA have been described.[22], [23], [24] […] Supernatant fractions were analyzed by LC‐MS/MS.

CCNC(C)Cc1cccc(C(F)(F)F)c1 (racemic) [FFA, (RS)‐ethyl (α‐methyl‐3‐trifluoromethylphenethyl)amine]
Disappearance of FFA (rCYP1A2; 1 μM FFA, 25 pmol rCYP1A2, 60 min): 23% | FFA loss (rCYP1A2; 10 μM FFA, rCYP1A2, 60 min): 22% | clearance accounted for in vivo (CYP inhibition by stiripentol/clobazam plus renal clearance): approximately 80% | maximum possible amount remaining for metabolism by MAO (human, in vivo, 0.1 mg/kg twice daily): ≤ 20%
